The target of the assay is T1, human GR (Homo sapiens, UniProt P04150).
T1 sequence (P04150 1-777): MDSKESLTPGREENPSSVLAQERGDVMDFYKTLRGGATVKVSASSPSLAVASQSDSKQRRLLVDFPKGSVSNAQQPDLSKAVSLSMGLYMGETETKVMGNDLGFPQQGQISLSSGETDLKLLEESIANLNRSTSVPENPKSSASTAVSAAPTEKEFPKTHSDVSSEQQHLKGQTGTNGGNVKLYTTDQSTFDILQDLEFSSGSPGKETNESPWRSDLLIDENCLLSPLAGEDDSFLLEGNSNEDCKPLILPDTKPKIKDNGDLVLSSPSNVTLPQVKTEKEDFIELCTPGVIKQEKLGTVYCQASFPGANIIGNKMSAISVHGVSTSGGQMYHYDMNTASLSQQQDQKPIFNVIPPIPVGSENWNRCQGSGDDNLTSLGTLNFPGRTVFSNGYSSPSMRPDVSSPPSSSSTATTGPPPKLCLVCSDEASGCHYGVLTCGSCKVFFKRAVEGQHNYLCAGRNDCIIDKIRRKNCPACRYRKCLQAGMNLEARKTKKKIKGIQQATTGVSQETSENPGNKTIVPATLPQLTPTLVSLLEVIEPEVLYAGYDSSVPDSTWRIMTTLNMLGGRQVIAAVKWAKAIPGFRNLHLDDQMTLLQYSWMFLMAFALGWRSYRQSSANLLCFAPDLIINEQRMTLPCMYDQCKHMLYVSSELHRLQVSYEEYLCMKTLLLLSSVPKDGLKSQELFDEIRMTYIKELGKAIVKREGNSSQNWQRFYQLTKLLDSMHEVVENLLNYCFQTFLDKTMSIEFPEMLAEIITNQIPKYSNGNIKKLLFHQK
In words: Trans-Activation Modulation of Glucocorticoid Receptor (GRAMMER), MMTV-LUC reporter, agonist mode. To be noted: for Emax: A549, A549 cells, maximum activity, read-out: Transactivation A549 Cells GRAMMER Emax; for EC50: A549 cells, inflection point, read-out: Transactivation A549 Cells GRAMMER IP. Also noted: endogenous in cells. The assay is classed as cell-based. The text has this:
This assay assesses the ability of test compounds to control transcription from the MMTV-LUC reporter gene in lung adenocarcinoma A549 cells or MDA-MB-453 cells, a human breast cancer cell line that naturally expresses the human GR. The assay measures induction of a modified MMTV LTR/promoter linked to the LUC reporter gene.
The routine transient assay consists of plating 7,000-25,000 cells/well of a white, clear-bottom 96-well plate. Alternatively, 384-well plates can be used at a cell concentration of 10,000/well. The media that the cells are plated in is “exponential growth medium” which consists of phenol red-free RPMI1640 containing 10% FBS, 4 mM L-glutamine, 20 mM HEPES, 10 ug/mL human insulin, and 20 ug/mL gentamicin. Incubator conditions are 37° C. and 5% CO2. The transfection is done in batch mode. The cells are trypsinized and counted to the right cell number in the proper amount of fresh media. It is then gently mixed with the FuGene6/DNA mix and plated onto the 96 or 384-well plate, all the wells receive 100 uL or 40 uL, respectively, of medium+lipid/DNA complex then incubated 37° C. overnight. The transfection cocktail consists of serum-free OptiMEM, FuGene6 reagent and DNA. The manufacturer's (Roche Biochemical) protocol for cocktail setup is as follows: The lipid to DNA ratio is approximately 2.5:1 and the incubation time is 20 min at room temperature. Sixteen to 24 hours after transfection, the cells are treated with dexamethasone to a final concentration of 10 nM as well as the compound of interest, such that final DMSO (vehicle) concentration is equal to or less than 1%. Each plate also contains samples that are treated with 10 nM dexamethasone alone, which is used as the 100% activity control. The cells are exposed to the compounds for 24 hours. After 24 hours, the cells are lysed by a Promega cell culture lysis buffer for approximately 30 min and then the luciferase activity in the extracts is assayed in the 96-well format luminometer. In 384-well format, Steady-Glo (Promega) or Steady-Lite (PerkinElmer) can be used by adding an equal volume of reagent to the media present in each well. Activity induced by 10 nM dexamethasone alone is set at 100% activity. Antagonist activity is calculated by determining the decrease in dexamethasone-induced activity in response to compound treatment relative to samples that were treated with dexamethasone alone. […] This transactivation assay can be performed in an agonist and antagonist mode to identify these different activities.

This note sets out measurements from patent US8299048B2, “Hexahydrocyclopentyl[f]indazole sulfonamides and derivatives thereof as selective glucocorticoid receptor modulators” (Merck Sharp & Dohme Corp., priority 2008, dated 2012).

For `Cn1cc(S(=O)(=O)N(CCc2ccccc2F)C[C@H]2CCC3=Cc4c(cnn4-c4ccc(F)cc4)C[C@@]32C)c(C(F)(F)F)n1` [Example 98, N-[2-(2-fluorophenyl)ethyl]-N-{[(4αR,5S)-1-(4-fluorophenyl)-4α-methyl-1,4,4α,5,6,7-hexahydrocyclopenta[f]indazol-5-yl]methyl}-1-methyl-3-(trifluoromethyl)-1H-pyrazole-4-sulfonamide], the maximal response (Emax) worked out at 76.7% and the EC50 turned out to be 239 nM.

Regarding `C[C@]12Cc3cnn(-c4ccc(F)cc4)c3C=C1CC[C@@H]2CN(CCc1ccccc1F)S(=O)(=O)c1ccccc1C(F)(F)F` [Example 99, N-[2-(2-fluorophenyl)ethyl]-N-{[(4αR,5S)-1-(4-fluorophenyl)-4α-methyl-1,4,4α,5,6,7-hexahydrocyclopenta[f]indazol-5-yl]methyl}-2-(trifluoromethyl)benzenesulfonamide], the maximal response (Emax) is 62.1% and the EC50 worked out at 236 nM.

In the case of `C[C@]12Cc3cnn(-c4ccc(F)cc4)c3C=C1CC[C@@H]2CN(CCc1ccccc1F)S(=O)(=O)c1ccccc1Cl` [Example 100, 2-chloro-N-[2-(2-fluorophenyl)ethyl]-N-{[(4αR,5S)-1-(4-fluorophenyl)-4α-methyl-1,4,4α,5,6,7-hexahydrocyclopenta[f]indazol-5-yl]methyl}benzenesulfonamide], the maximal response (Emax) is 64.9% and the EC50 turned out to be 397 nM.

As to `CCCCS(=O)(=O)N(CCc1ccccc1F)C[C@H]1CCC2=Cc3c(cnn3-c3ccc(F)cc3)C[C@@]21C` [Example 102, N-[2-(2-fluorophenyl)ethyl]-N-{[(4αR,5S)-1-(4-fluorophenyl)-4α-methyl-1,4,4α,5,6,7-hexahydrocyclopenta[f]indazol-5-yl]methyl}butane-1-sulfonamide], the Emax is 78.3% and the EC50 turned out to be 203 nM.

As to `CC(C)CS(=O)(=O)N(CCc1ccccc1F)C[C@H]1CCC2=Cc3c(cnn3-c3ccc(F)cc3)C[C@@]21C` [Example 103, N-[2-(2-fluorophenyl)ethyl]-N-{[(4αR,5S)-1-(4-fluorophenyl)-4α-methyl-1,4,4α,5,6,7-hexahydrocyclopenta[f]indazol-5-yl]methyl}-2-methylpropane-1-sulfonamide], the maximum response (Emax) amounted to 68.8% and the EC50 is 367 nM.

With `CCCCCCCCS(=O)(=O)N(CCc1ccccc1F)C[C@H]1CCC2=Cc3c(cnn3-c3ccc(F)cc3)C[C@@]21C` [Example 104, N-[2-(2-fluorophenyl)ethyl]-N-{[(4αR,5S)-1-(4-fluorophenyl)-4α-methyl-1,4,4α,5,6,7-hexahydrocyclopenta[f]indazol-5-yl]methyl}octane-1-sulfonamide], the Emax was determined as 9.2% and the EC50 is 258 nM.

`C[C@]12Cc3cnn(-c4ccc(F)cc4)c3C=C1CC[C@@H]2CN(CCc1ccccc1F)S(=O)(=O)Cc1ccc(Cl)cc1Cl` [Example 105, 1-(2,4-dichlorophenyl)-N-[2-(2-fluorophenyl)ethyl]-N-{[(4αR,5S)-1-(4-fluorophenyl)-4α-methyl-1,4,4α,5,6,7-hexahydrocyclopenta[f]indazol-5-yl]methyl}methanesulfonamide]: the Emax amounted to 85.5% and the EC50 was determined as 193 nM.

For the molecule `C[C@]12Cc3cnn(-c4ccc(F)cc4)c3C=C1CC[C@@H]2CN(CCc1ccccc1F)S(=O)(=O)Cc1cccc(Cl)c1` [Example 106, 1-(3-chlorophenyl)-N-[2-(2-fluorophenyl)ethyl]-N-{[(4αR,5S)-1-(4-fluorophenyl)-4α-methyl-1,4,4α,5,6,7-hexahydrocyclopenta[f]indazol-5-yl]methyl}methanesulfonamide], the maximum response (Emax) is 82.8% and the EC50 is 328 nM.

As to `C[C@]12Cc3cnn(-c4ccc(F)cc4)c3C=C1CC[C@@H]2CN(CCc1ccccc1F)S(=O)(=O)Cc1ccccc1Cl` [Example 107, 1-(2-chlorophenyl)-N-[2-(2-fluorophenyl)ethyl]-N-{[(4αR,5S)-1-(4-fluorophenyl)-4α-methyl-1,4,4α,5,6,7-hexahydrocyclopenta[f]indazol-5-yl]methyl}methanesulfonamide], the Emax is 73% and the EC50 worked out at 395 nM.

For `C[C@]12Cc3cnn(-c4ccc(F)cc4)c3C=C1CC[C@@H]2CN(CCc1ccccc1F)S(=O)(=O)Cc1ccccc1C(F)(F)F` [Example 108, N-[2-(2-fluorophenyl)ethyl]-N-{[(4αR,5S)-1-(4-fluorophenyl)-4α-methyl-1,4,4α,5,6,7-hexahydrocyclopenta[f]indazol-5-yl]methyl}-1-[2-(trifluoromethyl)phenyl]methanesulfonamide], the maximum response (Emax) is 46% and the EC50 was found to be 521 nM.

Take `CC(C1CCC2=Cc3c(cnn3-c3ccc(F)cc3)C[C@@]21C)N(CC1CC1)S(=O)(=O)CC(F)(F)F` (stereo partly drawn) [Example 109, N-(cyclopropylmethyl)-2,2,2-trifluoro-N-{1-[(4αR)-1-(4-fluorophenyl)-4α-methyl-1,4,4α,5,6,7-hexahydrocyclopenta[f]indazol-5-yl]ethyl}ethanesulfonamide]: the Emax was found to be 54.1% and the EC50 stood at 209 nM.

In the case of `C[C@]12Cc3cnn(-c4ccc(F)cc4)c3C=C1CC[C@@H]2CN(CC1CCCO1)S(=O)(=O)Cc1cccc(C(F)(F)F)c1` (stereo partly drawn) [Example 110, N-{[(4αR,5S)-1-(4-fluorophenyl)-4α-methyl-1,4,4α,5,6,7-hexahydrocyclopenta[f]indazol-5-yl]methyl}-N-(tetrahydrofuran-2-ylmethyl)-1-[3-(trifluoromethyl)phenyl]methanesulfonamide], the Emax came to 4.9% and the EC50 amounted to 1100 nM.

Turning to `C[C@]12Cc3cnn(-c4ccc(F)cc4)c3C=C1CC[C@@H]2CN(CCc1ccccc1F)S(=O)(=O)Cc1ccc(Cl)c(Cl)c1` [Example 111, 1-(3,4-dichlorophenyl)-N-[2-(2-fluorophenyl)ethyl]-N-{[(4αR,5S)-1-(4-fluorophenyl)-4α-methyl-1,4,4α,5,6,7-hexahydrocyclopenta[f]indazol-5-yl]methyl}methanesulfonamide], the Emax stood at 37.6% and the EC50 came out at 748 nM.

In the case of `C[C@H](O)CN(C[C@H]1CCC2=Cc3c(cnn3-c3ccc(F)cc3)C[C@@]21C)S(=O)(=O)c1ccc(F)c(Cl)c1` [Example 112, 3-chloro-4-fluoro-N-{[(4αR,5S)-1-(4-fluorophenyl)-4α-methyl-1,4,4α,5,6,7-hexahydrocyclopenta[f]indazol-5-yl]methyl}-N-[(2S)-2-hydroxypropyl]benzenesulfonamide], the Emax turned out to be 33.4% and the EC50 worked out at 423 nM.

For the molecule `C[C@H](O)CN(C[C@H]1CCC2=Cc3c(cnn3-c3ccc(F)cc3)C[C@@]21C)S(=O)(=O)CC(F)(F)F` [Example 113], the Emax turned out to be 85.4% and the EC50 stood at 54.7 nM.

Regarding `C[C@@H](CN(C[C@H]1CCC2=Cc3c(cnn3-c3ccc(F)cc3)C[C@@]21C)S(=O)(=O)CC(F)(F)F)OS(=O)(=O)CC(F)(F)F` [Example 114, (1S)-2-{{[(4αR,5S)-1-(4-fluorophenyl)-4α-methyl-1,4,4α,5,6,7-hexahydrocyclopenta[f]indazol-5-yl]methyl}[(2,2,2-trifluoroethyl)sulfonyl]amino}-1-methylethyl 2,2,2-trifluoroethanesulfonate], the maximal response (Emax) amounted to 80.3% and the EC50 stood at 161 nM.

The term Emax denotes the maximal effect, on the per cent scale that the assay sets.
